Data published in PubChem BioAssay AID743478 (Broad Institute, 2014).
“And” between values parts separate entries of the source, which are not always exact repeats. Equal values may be shown once.

The compounds below were run on A673 viability, CellTiter-Glo ATP luminescence, 72 h (assay: killing of EWS/Fli1-dependent A673 cells, confirmation, cell-based, luminescence, retest at dose, dry powder (AID 743478)).
`CN(C)c1ccc2c(c1)OC(N)=C(C#N)C2c1cccc(F)c1` (centres undefined) gave an AC35 of 0.0177 µM. With `O=C(Cc1ccc(-c2ccc(OCCN3CCOCC3)cc2)cn1)NCc1ccccc1` the AC35 was under 0.0235 µM. Work on `C=C([C@@H](O)[C@@H](C)O)[C@@H](OC)[C@]1(C)Cc2cc3cc(O[C@H]4CC(OC5CC(O)C(O)C(C)O5)C(O)C(C)O4)cc(O)c3c(O)c2C(=O)[C@H]1OC1CC(OC2CC(OC3CC(C)(O)C(O)C(C)O3)C(O)C(C)O2)C(O)C(C)O1` (some centres undefined) yielded an AC35 of 0.0368 µM. `COc1cccc2c1C(=O)c1c(O)c3c(c(O)c1C2=O)C[C@@](O)(C(=O)CO)C[C@@H]3O[C@H]1C[C@H](N)[C@H](O)[C@H](C)O1` gave an AC35 of under 0.05 µM. Compound `O=C(c1cc(Cc2n[nH]c(=O)c3ccccc23)ccc1F)N1CCN(C(=O)C2CC2)CC1` has an AC35 of 3.97 µM. With `COc1ccc(OC)c(-c2nnc3n2N=C(c2ccc(OC)c(OC)c2)CS3)c1` the AC35 was < 0.0235 µM and 0.0163 µM. With `Cn1cc(-c2ccncc2)c(-c2ccc(OCc3ccc4ccccc4n3)cc2)n1` the AC35 was 21.3 µM. `N#CC1=C(N)Oc2cc(N)ccc2C1c1cccc(F)c1` (centres undefined) gave an AC35 of 0.907 µM. With `Clc1ccccc1-c1nnc2n1N=C(c1ccc3c(c1)OCO3)CS2` the AC35 was 0.408 µM. Work on `COc1cccc(C2C(C#N)=C(N)Oc3cc(N)ccc32)c1` (centres undefined) yielded an AC35 of 0.444 µM. With `COc1ccccc1-c1nnc2n1N=C(c1ccc3c(c1)OCO3)CS2` the AC35 was 0.0164 µM. With `COc1ccc(S(=O)(=O)N2CC[C@@H]3[C@@H](CO)Nc4ccc(-c5cccc(C#N)c5)cc4[C@@H]32)cc1` the AC35 was 3.95 µM. Work on `CN1c2ccc(-c3ccc(C#N)cc3)cc2[C@H]2[C@H](CCN2S(=O)(=O)c2cccc(F)c2)[C@H]1CO` yielded an AC35 of 3.65 µM. Compound `COc1ccc(C2=Nn3c(nnc3-c3ccccc3OC)SC2)cc1OC` has an AC35 of 0.0556 µM. `COc1cccc(S(=O)(=O)N2CC[C@@H]3[C@@H](CO)Nc4ccc(-c5ccc(C#N)cc5)cc4[C@@H]32)c1` showed an AC35 of 21.4 µM. For `COc1ccc(S(=O)(=O)N2CC[C@@H]3[C@@H](CO)N(C)c4ccc(-c5ccc(F)cc5)cc4[C@@H]32)cc1`, the AC35 was 3.08 µM. In the case of `COc1ccc(-c2cc(NC=O)c3ncc(-c4ccc(OC)c(OC)c4)n3c2)cc1`, the AC35 is reported as 0.545 µM. `CC[C@]1(O)CC2CN(CCc3c([nH]c4ccccc34)[C@@](C(=O)OC)(c3cc4c(cc3OC)N(C=O)[C@H]3[C@@](O)(C(=O)OC)[C@H](OC(C)=O)[C@]5(CC)C=CCN6CC[C@]43[C@@H]65)C2)C1` (some centres undefined) was tested, and the AC35 was under 0.0015 µM. `COc1cc(C2C(C#N)=C(N)Oc3cc(N(C)C)ccc32)cc2c1OCO2` (centres undefined) was tested, and the AC35 was 0.0823 µM. In the case of `Cc1ccccc1C1C(C#N)=C(N)Oc2cc(N)ccc21` (centres undefined), the AC35 is reported as 13.1 µM. Work on `N#Cc1ccc(-c2ccc3c(c2)[C@H]2[C@H](CCN2S(=O)(=O)c2ccccc2F)[C@@H](CO)N3)cc1` yielded an AC35 of 12.5 µM. For `N#CC1=C(N)Oc2cc(N)ccc2C1c1ccccc1Cl` (centres undefined), the AC35 was 12.3 µM. `COc1ccccc1S(=O)(=O)N1CC[C@@H]2[C@@H](CO)Nc3ccc(-c4ccc(C#N)cc4)cc3[C@@H]21` gave an AC35 of 11.6 µM. With `COc1ccccc1-c1nnc2n1N=C(c1ccc(O)c(O)c1)CS2` the AC35 was 0.807 µM. In the case of `Cc1ccc([N+](=O)[O-])cc1S(=O)(=O)N(C)C`, the AC35 is reported as 3.97 µM. Work on `COc1ccc(S(=O)(=O)N2CC[C@@H]3[C@@H](CO)Nc4ccc(-c5ccc(C#N)cc5)cc4[C@@H]32)cc1` yielded an AC35 of 4.03 µM. With `COc1ccc(C2=Nn3c(nnc3-c3ccccc3Cl)SC2)cc1OC` the AC35 was 0.392 µM. Work on `N#Cc1ccc(-c2ccc3c(c2)[C@H]2[C@H](CCN2S(=O)(=O)c2cccc(F)c2)[C@@H](CO)N3)cc1` yielded an AC35 of 5.43 µM. In the case of `CC1(C)CC(c2nc(-c3ccc4ccc(-c5ccccc5)nc4c3)c3c(N)nccn23)C1`, the AC35 is reported as 2.02 µM. Compound `COc1cc([C@@H]2c3cc4c(cc3[C@@H](O[C@@H]3O[C@@H]5CO[C@@H](C)O[C@H]5[C@H](O)[C@H]3O)[C@H]3COC(=O)[C@H]23)OCO4)cc(OC)c1O` has an AC35 of 0.751 µM. `COc1ccc(C2=Nn3c(nnc3-c3ccccc3F)SC2)cc1OC` gave an AC35 of 3.18 µM. `N#CC1=C(N)Oc2cc(O)ccc2C1c1cccc(Br)c1` (centres undefined) showed an AC35 of 1.84 µM. `Cc1cccc(C2C(C#N)=C(N)Oc3cc(N)ccc32)c1` (centres undefined) gave an AC35 of 0.486 µM. Compound `CCCCc1ccc2nc(NC(=O)OC)[nH]c2c1` has an AC35 of under 0.05 µM. For `N#CC1=C(N)Oc2cc3c(cc2C1c1cccc(Br)c1)OCO3` (centres undefined), the AC35 was 0.0288 µM. With `N#CC1=C(N)Oc2ccc3ccccc3c2C1c1cccc(F)c1` (centres undefined) the AC35 was 0.526 µM. Compound `N#CC1=C(N)Oc2cc(OC(=O)c3ccccc3)ccc2C1c1cccc(Br)c1` (centres undefined) has an AC35 of 2.46 µM. For `COc1ccc(S(=O)(=O)N2CC[C@@H]3[C@H](CO)Nc4ccc(-c5ccc(C#N)cc5)cc4[C@@H]32)cc1`, the AC35 was 6.54 µM. With `N#CC1=C(N)Oc2cc(N)ccc2C1c1ccc2ccccc2c1` (centres undefined) the AC35 was 11.9 µM.
